Here are results for 31 compounds from patent US10487068B2, “Pyridazine derivatives as RORc modulators” (Genentech, Inc., priority 2015, dated 2019).

Molecules are shown by their SMILES.

In the experiment the target is T1, RORc ligand binding domain (Homo sapiens, UniProt P51449).
T1 sequence (P51449 269-508 limits assumed): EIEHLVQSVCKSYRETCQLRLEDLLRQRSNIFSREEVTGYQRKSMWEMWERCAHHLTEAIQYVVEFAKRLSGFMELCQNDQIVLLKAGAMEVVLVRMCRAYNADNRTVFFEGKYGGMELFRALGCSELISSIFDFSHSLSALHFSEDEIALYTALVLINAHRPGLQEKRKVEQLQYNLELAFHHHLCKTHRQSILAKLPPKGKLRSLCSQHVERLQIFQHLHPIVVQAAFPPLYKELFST
In words: In Vitro RORc Ligand Binding Assay. The note with it: RORc IC50, radioligand 25-[3H]hydroxycholesterol 6 nM; 0.6 ug/mL RORc receptor; 3 h at 25° C.

As a reminder, the IC50 is the concentration at which inhibition is half-maximal. Read a high IC50 as a need for much substance. In turn, `CC(C)(O)c1ccn(-c2nccc([C@@]34CC[C@@H](c5cc(-c6c(F)cccc6F)nnc53)C4(C)C)n2)n1` [Example 290] registered an IC50 of 33.5 nM.

Take `CC1(C)[C@H]2CC[C@]1(c1ccnc(-n3ccc(C(N)=O)n3)n1)c1nnc(-c3c(F)cccc3F)cc12` [Example 291]: the IC50 was determined as 34.3 nM. The IC50 values of the last two compounds are within 1.5-fold of each other.

Consider `CC(C)(O)c1nc(-c2ncc(Cl)c([C@@]34CC[C@@H](c5cc(-c6c(F)cccc6F)nnc53)C4(C)C)n2)no1` [Example 292], for which the IC50 amounted to 13.9 nM. Consider `CC1(C)[C@H]2CC[C@]1(c1cncc(-c3nc(C[C@H](O)CO)n[nH]3)n1)c1nnc(-c3c(F)cccc3F)cc12` [Example 293, (S)-3-(5-(6-((5R,8S)-3-(2,6-difluorophenyl)-9,9-dimethyl-5,6,7,8-tetrahydro-5,8-methanocinnolin-8-yl)pyrazin-2-yl)-1H-1,2,4-triazol-3-yl)propane-1,2-diol], for which the concentration for half-maximal inhibition (IC50) is 28 nM. Compared with the last compound, the IC50 is about 2-fold higher. The value for `CC1(C)[C@H]2CC[C@]1(c1cncc(-c3nc(CS(C)(=O)=O)n[nH]3)n1)c1nnc(-c3c(F)cccc3F)cc12` [Example 294] was 23.3 nM; that for `CC[C@H](O)c1n[nH]c(-c2cncc([C@@]34CC[C@@H](c5cc(-c6c(F)cccc6F)nnc53)C4(C)C)n2)n1` [Example 295, (S)-1-(5-(6-((5R,8S)-3-(2,6-difluorophenyl)-9,9-dimethyl-5,6,7,8-tetrahydro-5,8-methanocinnolin-8-yl)pyrazin-2-yl)-1H-1,2,4-triazol-3-yl)propan-1-ol] was 15.2 nM; that for `CC1(C)[C@H]2CC[C@]1(c1cncc(C3=NNC(=O)CN3)n1)c1nnc(-c3c(F)cccc3F)cc12` [Example 296, 3-(6-((5R,8S)-3-(2,6-difluorophenyl)-9,9-dimethyl-5,6,7,8-tetrahydro-5,8-methanocinnolin-8-yl)pyrazin-2-yl)-4,5-dihydro-1,2,4-triazin-6(1H)-one] was 20.9 nM. For `C[C@H](O)Cc1n[nH]c(-c2cncc([C@@]34CC[C@@H](c5cc(-c6c(F)cccc6F)nnc53)C4(C)C)n2)n1` [Example 297, (S)-1-(5-(6-((5R,8S)-3-(2,6-difluorophenyl)-9,9-dimethyl-5,6,7,8-tetrahydro-5,8-methanocinnolin-8-yl)pyrazin-2-yl)-1H-1,2,4-triazol-3-yl)propan-2-ol] the value was 19.9 nM; for `Cc1n[nH]cc1-c1nccc([C@@]23CC[C@@H](c4cc(-c5c(F)cccc5F)nnc42)C3(C)C)n1` [Example 298], 5.7 nM. `CC1(C)[C@H]2CC[C@]1(c1ccnc(N3CC(C(N)=O)C3)n1)c1nnc(-c3c(F)cccc3F)cc12` [Example 299]: the IC50 stood at 24.1 nM. This IC50 is about 4.2-fold higher than that of the compound before. `CC1(C)[C@H]2CC[C@]1(c1ccnc(-n3ccc(CC(N)=O)n3)n1)c1nnc(-c3c(F)cccc3F)cc12` [Example 300] had an IC50 of 12.2 nM.

The compound `CC(C)(O)c1nc(-c2cncc([C@@]34CC[C@@H](c5cc(-c6c(F)cccc6F)nnc53)C4(C)C)n2)c[nH]1` [Example 301, 2-(4-(6-((5R,8S)-3-(2,6-difluorophenyl)-9,9-dimethyl-5,6,7,8-tetrahydro-5,8-methanocinnolin-8-yl)pyrazin-2-yl)-1H-imidazol-2-yl)propan-2-ol] registered an IC50 of 13.6 nM. On to `CC1(C)[C@H]2CC[C@]1(c1nccc(-c3ccn[nH]3)n1)c1nnc(-c3c(F)cccc3F)cc12` [Example 302, (5R,8R)-8-(4-(1H-pyrazol-5-yl)pyrimidin-2-yl)-3-(2,6-difluorophenyl)-9,9-dimethyl-5,6,7,8-tetrahydro-5,8-methanocinnoline], for which the IC50 is 9.9 nM. Regarding `CC1(C)[C@H]2CC[C@]1(c1ccnc(-n3ccc(=O)[nH]3)n1)c1nnc(-c3c(F)cccc3F)cc12` [Example 303], the half-inhibitory concentration (IC50) came out at 15 nM. For `CC(C)(O)c1cc(-c2cccc([C@@]34CC[C@@H](c5cc(-c6c(F)cccc6F)nnc53)C4(C)C)n2)[nH]n1` [Example 304, 2-(5-(6-((5R,8S)-3-(2,6-difluorophenyl)-9,9-dimethyl-5,6,7,8-tetrahydro-5,8-methanocinnolin-8-yl)pyridin-2-yl)-1H-pyrazol-3-yl)propan-2-ol] the value was 9.4 nM; for `CC1(C)[C@H]2CC[C@]1(c1ccnc(-n3cnc(N)n3)n1)c1nnc(-c3c(F)cccc3F)cc12` [Example 305], 19.6 nM; for `CC1(C)[C@H]2CC[C@]1(c1cncc(-c3nc(CCO)n[nH]3)n1)c1nnc(-c3c(F)cccc3F)cc12` [Example 306, 2-(5-(6-((5R,8S)-3-(2,6-difluorophenyl)-9,9-dimethyl-5,6,7,8-tetrahydro-5,8-methanocinnolin-8-yl)pyrazin-2-yl)-1H-1,2,4-triazol-3-yl)ethanol], 16.2 nM. Consider `CC(C)(O)C1CN(c2nccc([C@@]34CC[C@@H](c5cc(-c6c(F)cccc6F)nnc53)C4(C)C)n2)C1` [Example 307], for which the IC50 turned out to be 13.5 nM.

Turning to `CC1(C)[C@H]2CC[C@]1(c1cncc(-c3nc([C@@H](O)C(F)(F)F)n[nH]3)n1)c1nnc(-c3c(F)cccc3F)cc12` [Example 308, (R)-1-(5-(6-((5R,8S)-3-(2,6-difluorophenyl)-9,9-dimethyl-5,6,7,8-tetrahydro-5,8-methanocinnolin-8-yl)pyrazin-2-yl)-1H-1,2,4-triazol-3-yl)-2,2,2-trifluoroethanol], the IC50 turned out to be 104 nM. This IC50 is about 7.7-fold higher than that of the compound before.

`CC1(C)[C@H]2CC[C@]1(c1cncc(-c3nc([C@H](O)C(F)(F)F)n[nH]3)n1)c1nnc(-c3c(F)cccc3F)cc12` [Example 309, (S)-1-(5-(6-((5R,8S)-3-(2,6-difluorophenyl)-9,9-dimethyl-5,6,7,8-tetrahydro-5,8-methanocinnolin-8-yl)pyrazin-2-yl)-1H-1,2,4-triazol-3-yl)-2,2,2-trifluoroethanol] showed a half-maximal inhibitory concentration (IC50) of 88.4 nM.

In the case of `CC1(C)[C@H]2CC[C@]1(c1cccc(-c3nc(CCO)n[nH]3)n1)c1nnc(-c3c(F)cccc3F)cc12` [Example 310, 2-(5-(6-((5R,8S)-3-(2,6-difluorophenyl)-9,9-dimethyl-5,6,7,8-tetrahydro-5,8-methanocinnolin-8-yl)pyridin-2-yl)-1H-1,2,4-triazol-3-yl)ethanol], the half-inhibitory concentration (IC50) stood at 73.5 nM.

In turn, `C[C@@H](O)Cc1n[nH]c(-c2cccc([C@@]34CC[C@@H](c5cc(-c6c(F)cccc6F)nnc53)C4(C)C)n2)n1` [Example 311, (R)-1-(5-(6-((5R,8S)-3-(2,6-difluorophenyl)-9,9-dimethyl-5,6,7,8-tetrahydro-5,8-methanocinnolin-8-yl)pyridin-2-yl)-1H-1,2,4-triazol-3-yl)propan-2-ol] returned an IC50 of 71.1 nM. The value for `C[C@H](O)Cc1n[nH]c(-c2cccc([C@@]34CC[C@@H](c5cc(-c6c(F)cccc6F)nnc53)C4(C)C)n2)n1` [Example 312, (S)-1-(5-(6-((5R,8S)-3-(2,6-difluorophenyl)-9,9-dimethyl-5,6,7,8-tetrahydro-5,8-methanocinnolin-8-yl)pyridin-2-yl)-1H-1,2,4-triazol-3-yl)propan-2-ol] was 62.7 nM.

The compound `CC1(C)[C@H]2CC[C@]1(c1cccc(-c3cc(CO)n[nH]3)n1)c1nnc(-c3c(F)cccc3F)cc12` [Example 313, (5-(6-((5R,8S)-3-(2,6-difluorophenyl)-9,9-dimethyl-5,6,7,8-tetrahydro-5,8-methanocinnolin-8-yl)pyridin-2-yl)-1H-pyrazol-3-yl)methanol] showed a half-maximal inhibitory concentration (IC50) of 1.6 nM. The value for `CC(C)(O)c1noc(-c2cccc([C@@]34CC[C@@H](c5cc(-c6c(F)cccc6F)nnc53)C4(C)C)n2)n1` [Example 314, 2-(5-(6-((5R,8S)-3-(2,6-difluorophenyl)-9,9-dimethyl-5,6,7,8-tetrahydro-5,8-methanocinnolin-8-yl)pyridin-2-yl)-1,2,4-oxadiazol-3-yl)propan-2-ol] was 1.5 nM. `CC1(C)[C@H]2CC[C@]1(c1cncc(OCC(N)=O)n1)c1nnc(-c3c(F)cccc3F)cc12` [Example 315, 2-((6-((5R,8S)-3-(2,6-difluorophenyl)-9,9-dimethyl-5,6,7,8-tetrahydro-5,8-methanocinnolin-8-yl)pyrazin-2-yl)oxy)acetamide]: the IC50 amounted to 94.1 nM. For `CC(C)(O)COc1cncc([C@@]23CC[C@@H](c4cc(-c5c(F)cccc5F)nnc42)C3(C)C)n1` [Example 316, 1-((6-((5R,8S)-3-(2,6-difluorophenyl)-9,9-dimethyl-5,6,7,8-tetrahydro-5,8-methanocinnolin-8-yl)pyrazin-2-yl)oxy)-2-methylpropan-2-ol] the value was 36.4 nM; for `CC1(C)[C@H]2CC[C@]1(c1cccc(-c3nc(C4(O)CC4)n[nH]3)n1)c1nnc(-c3c(F)cccc3F)cc12` [Example 317, 1-(5-(6-((5R,8S)-3-(2,6-difluorophenyl)-9,9-dimethyl-5,6,7,8-tetrahydro-5,8-methanocinnolin-8-yl)pyridin-2-yl)-1H-1,2,4-triazol-3-yl)cyclopropanol], 9.2 nM; for `CC[C@@H](O)c1n[nH]c(-c2cccc([C@@]34CC[C@@H](c5cc(-c6c(F)cccc6F)nnc53)C4(C)C)n2)n1` [Example 318, (R)-1-(5-(6-((5R,8S)-3-(2,6-difluorophenyl)-9,9-dimethyl-5,6,7,8-tetrahydro-5,8-methanocinnolin-8-yl)pyridin-2-yl)-1H-1,2,4-triazol-3-yl)propan-1-ol], 10.8 nM. For `CC1(C)[C@H]2CC[C@]1(c1cccc(-c3nc(C4(O)COC4)n[nH]3)n1)c1nnc(-c3c(F)cccc3F)cc12` [Example 320, 3-(5-(6-((5R,8S)-3-(2,6-difluorophenyl)-9,9-dimethyl-5,6,7,8-tetrahydro-5,8-methanocinnolin-8-yl)pyridin-2-yl)-1H-1,2,4-triazol-3-yl)oxetan-3-ol] the value was 9 nM; for `CC1(C)[C@H]2CC[C@]1(c1cccc(-c3nc(CS(C)(=O)=O)n[nH]3)n1)c1nnc(-c3c(F)cccc3F)cc12` [Example 321], 12.7 nM.
